In a melting point compilation (Tetko et al.; mined from patent text by program, amines drawn as free bases though some values may be those of a salt):

Which melting point does the source give for `COc1cccc(C2=C(CC(C)=O)C(=O)NCCC2)c1` here?
Its melting point is 140 to 142 °C.

With `Cc1cc(NC(=O)C(=O)N2CCCCC2)cc(C)c1S(=O)(=O)C[N+](=O)[O-]` as the compound, how does the melting point read?
The melting point was 169 to 170 °C.

Which melting point does the source give for `CCOC(=O)c1c(C(C)Cl)nc2c(C(F)(F)F)cccc2c1O` (configuration not stated) here?
Its melting point is 104 °C.

With `CCCc1nc2c(N)nc(C)c(C)c2n1CCCCCS(C)(=O)=O` as the compound, how does the melting point read?
Its melting point is 145 to 146 °C.

For `CN1CCC(=C2c3ccccc3C=Cc3ccc(Br)cc32)CC1`, which melting point is on record?
Its melting point is 189 to 190 °C.

Which melting point does the source give for `CC1Cc2cc3c(cc2C(c2ccc([N+](=O)[O-])cc2)=NN1c1ccc(Cl)nn1)OCO3` (configuration not stated) here?
The melting point was 254 to 255 °C.

For `CN(C)CCNc1ccc([N+](=O)[O-])c2sc3ccc(O)cc3c(=O)c12`, which melting point is on record?
The melting point was greater than 300 °C.

For `Cc1cc(C#N)cc(C(=O)Nc2ccnc(F)c2)n1`, which melting point is on record?
The melting point was 246 °C.

For `Cc1cccc2c1[C@@H]1CN(C)CC[C@@H]1CC2=O` (relative stereo), which melting point is on record?
Its melting point is greater than 220 °C.

Which melting point does the source give for `CCCCCCCCC(C)(C)c1cc(=O)c2cc(O)ccc2o1` here?
Its melting point is 257 °C.

For `Cc1ccc2c(c1)N=C(N1CCN(C)CC1)c1cc(Br)cc3ccn-2c13`, which melting point is on record?
The melting point was 153 to 155 °C.

Which melting point does the source give for `CCOC(=O)On1nnc2ccc(Cl)cc21` here?
Its melting point is 160 to 162 °C.

Which melting point does the source give for `CCC(=S)NC[C@H]1CN(c2ccc(N3CCN(C(=O)COc4ccc(CN5CCOCC5)cc4)CC3)c(F)c2)C(=O)O1` here?
Its melting point is 159 to 160 °C.

For `COC(=O)C1=C2Nc3ccccc3C23CCN(Cc2ccccc2)C3CC1` (configuration not stated), which melting point is on record?
The melting point was 58 to 60 °C.

Which melting point does the source give for `COC(=O)c1cc(C(=O)c2nc(Br)c3ccccn23)ccc1N` here?
Its melting point is 230 °C.

With `O=C(NC(CC1CCCC1)C(=O)NC1CCCN(C(=O)c2ccccc2)CC1=O)c1ccco1` (configuration not stated) as the compound, how does the melting point read?
The melting point was 97 to 100 °C.

For `CC(C)Oc1ccccc1OCCCN1CCC(C(O)(c2ccc(F)cc2)c2ccc(F)cc2)CC1`, which melting point is on record?
Its melting point is 75 to 79 °C.

For `c1nc(-c2ccc(CN3CCCCCC3)s2)n[nH]1`, which melting point is on record?
Its melting point is 129 to 130 °C.

With `CCOC(=O)c1ccc(CN2CCC(NC(=O)OC(C)(C)C)CC2)cc1` as the compound, how does the melting point read?
Its melting point is 74 to 76 °C.

For `O=C1NC(=O)C(c2ccc(Oc3ccccc3)cc2)C(=O)N1`, which melting point is on record?
The melting point was greater than 240 °C.

With `CC(=O)c1nc2ccc(OC(C)C)cc2cc1OCc1ccccc1` as the compound, how does the melting point read?
Its melting point is 102 to 104 °C.

With `CCOC(=O)CON(C)C(=S)Nc1cc(Cl)ccc1C` as the compound, how does the melting point read?
Its melting point is 83 to 84 °C.

With `CCc1ncc(CO)c(NCc2ccc(-c3ccccc3-c3nnnn3C(c3ccccc3)(c3ccccc3)c3ccccc3)cc2)n1` as the compound, how does the melting point read?
The melting point was 118 to 120 °C.

For `Cc1ccc(C(c2cc(C(C)(C)C)cc(C(C)(C)C)c2O)N(C)C)cc1C` (configuration not stated), which melting point is on record?
Its melting point is 82 to 85 °C.

With `CCOC(=O)c1cc2c3n(ccc-2n1)C(Br)C=N3` (configuration not stated) as the compound, how does the melting point read?
Its melting point is 280 to 282 °C.

Which melting point does the source give for `CNC(=O)c1ccc(F)c2c1CC(N(CCc1c[nH]c3ccc(F)cc13)C1CCC1)CO2` (configuration not stated) here?
The melting point was 131 °C.

With `Cc1cccc(S(=O)(=O)n2c(CCC(=O)O)cc3cc(Cl)ccc32)c1` as the compound, how does the melting point read?
Its melting point is 161 to 165 °C.
